The target in assay [1] is T1, SpGpsB1-63Asp33Ala (Streptococcus pneumoniae, UniProt Q8DR57, D33A).
T1 construct: His6 (N, cleaved yes); made in house; host or cells: E. coli BL21(DE3)
Briefly: Fluorescence polarisation binding to SpGpsB1-63Asp33Ala. Conditions: FP, SpGpsB1-63Asp33Ala relative to wild-type SpGpsB1-63. The source says:
(§1) 75 the BsGpsB5-64:BsPBP11-17 complex.
A general note: In fluorescence polarisation assays a small probe gives low polarisation when free and higher when bound to something large.

Assay [2] concerns the target T2, SpGpsB1-63 (Streptococcus pneumoniae, UniProt Q8DR57).
T2 construct: The SpGpsB1-63 expression construct (pET28SpGpsB1-63) was prepared by PCR amplification of gpsB; His6 (N, cleaved yes); made in house; host or cells: E. coli BL21(DE3)
The assay can be described thus: Fluorescence polarisation binding to SpGpsB1-63. Conditions: FP.
Text: as §1

Assay [3] concerns L. monocytogenes. As to conditions: 37 °C, vs wild-type L. monocytogenes; cited from earlier work.
Assay [4] relates to L. monocytogenes. Briefly: L. monocytogenes fosfomycin susceptibility (filter disc). Format: cell-based, Listeria monocytogenes EGD-e. Conditions: halo around filter disc, BHI agar, 37 °C; pbpA1 R8A,R12A and Q10P mutants; triplicate. On the procedure: Fosfomycin susceptibility was recorded using filter discs (Ø 6 mm) soaked with 10 µL of a 10 mg^−1mL^−1 fosfomycin solution. L. monocytogenes colonies, grown on BHI agar plates, were resuspended in BHI broth and used to swab-inoculate BHI agar plates. Filter discs soaked with fosfomycin were placed on top of the agar surface and the plates were incubated at 37 °C overnight. Diameter of growth inhibition zones was measured and corrected for the filter disc diameter. All experiments were performed three times and average values and standard deviations were calculated. Significance was determined using the t-test and differences were considered to be significant when P < 0.01.

The target of assay [5] is T3, BsGpsB1-68 (Bacillus subtilis, UniProt P0CI74).
T3 construct: His6 (N, cleaved yes); made in house; host or cells: E. coli BL21(DE3)
Format: binding. As to conditions: FP.
Text: as §1

Assay [6] has as its target T3, BsGpsB1-68. As to conditions: FP, compared with residue-16-labelled peptide; ref 3 (supplement); cited from earlier work.
Assay [7] addresses T4, BsGpsB1-68Lys32Glu (Bacillus subtilis, UniProt P0CI74, K32E).
T4 construct: His6 (N, cleaved yes); made in house; host or cells: E. coli BL21(DE3)
Briefly: Fluorescence polarisation binding to BsGpsB1-68Lys32Glu. As to conditions: FP.
Text: as §1

The target of assay [8] is T5, LmGpsB1-73 (Listeria monocytogenes serovar 1/2a, UniProt Q8Y614).
T5 construct: made in house; host or cells: E. coli BL21(DE3)
The assay can be described thus: Fluorescence polarisation binding to LmGpsB1-73. As to conditions: FP.
Text: as §1

Assay [9] is described as follows: Peptidoglycan pulldown assay. Format: binding, Bacillus subtilis. As to conditions: 25 µg protein + 66 µg PG in 100 µL PBS, room temperature 30 min, SDS-PAGE. As for the experimental part:
PG pulldown assays were carried out in PBS buffer. B. subtilis PG (SigmaAldrich) was prepared as a 10 mg^−1 mL^−1 stock solution in PBS containing 0.02% sodium azide. 25 µg of protein were added to a 100 µL sample containing 66 µg of PG and the mixture incubated with gentle agitation at room temperature for 30 min. The mixture was centrifuged at 16,000 × g for 7 min, the supernatant removed and the pellet resuspended in 1 mL of ice-cold PBS and immediately centrifuged for 2 min at 16,000 × g. The pellet was resuspended in 1 mL of the appropriate buffer and centrifuged for 2 min at 16,000 × g. Finally the pellet was boiled for 3 min in 60 μL SDS-PAGE loading buffer before analysis by SDS-PAGE; the SDS-PAGE loading buffer lacked reducing agents for YpbE130-240^Ser132Cys samples.

Assay [10] relates to BsYrrS. Briefly: BACTH interaction with BsYrrS. Format: cell-based, Bacillus subtilis. Conditions: E. coli BTH101, nutrient agar, 30 °C.

Read-outs that look alike come from different tables or passages of the source. Residues, ends and D or L forms follow the SMILES beside them. *: point of attachment. Fluorescein(5-Mal) = O=C1OC2(c3ccc(O)cc3Oc3cc(O)ccc32)c2ccc(N3C(=O)CC(*)C3=O)cc21; X1 = CN(C)c1ccc2c(-c3ccc(N4C(=O)CC(*)C4=O)cc3C(=O)[O-])c3ccc(=[N+](C)C)cc-3oc2c1

In the case of `CC[C@H](C)[C@H](NC(=O)[C@@H]1CCCN1C(=O)[C@H](CSC1CC(=O)N(c2ccc(-c3c4ccc(=[N+](C)C)cc-4oc4cc(N(C)C)ccc34)c(C(=O)[O-])c2)C1=O)NC(=O)[C@@H](NC(=O)[C@H](CCC(N)=O)NC(=O)[C@H](C)NC(=O)[C@H](CC(C)C)NC(=O)[C@H](CCCCN)NC(=O)[C@H](CCCCN)NC(=O)[C@H](CCCNC(=N)N)NC(=O)[C@H](CC(=O)O)NC(=O)[C@H](CO)NC(=O)[C@H](CCCNC(=N)N)NC(=O)[C@H](CO)NC(=O)[C@H](CCCNC(=N)N)NC(=O)[C@H](CCCNC(=N)N)NC(=O)[C@H](CC(C)C)NC(=O)[C@@H](NC(=O)[C@@H](NC(=O)[C@H](CO)NC(=O)[C@H](CC(=O)O)NC(=O)[C@H](CO)NC(=O)[C@H](CC(=O)O)NC(=O)[C@H](CCSC)NC(=O)[C@H](CO)NC(=O)CN)[C@@H](C)O)[C@@H](C)CC)C(C)C)C(=O)O` (some centres unmarked) [TAMRA-SpPBP2a23-45] (H-GSMDSDSTILRRSRSDRKKLAQVC(X1)PI-OH), the “reduction in affinity on GpsB mutation” value in [1] is ~ 40 fold. Further, the “binding to SpGpsB1-63 (in words)” value in [2] is listed as “interacts”.
As for `C[C@@H]1O[C@@H]1P(=O)(O)O` [fosfomycin], the “fosfomycin susceptibility of ΔgpsB mutants” value in assay [3] is given as “more susceptible”. Also, the fosfomycin sensitivity entry in assay [4] is “Effects on fosfomycin sensitivity were apparent in mutants carrying the pbpA1^Arg8Ala,Arg12Ala and pbpA1^Gln10Pro alleles but only when LmPBPA2, the LmPBPA1 paralogue, was also absent”.
`CSCC[C@H](NC(=O)[C@H](CO)NC(=O)CN)C(=O)N[C@@H](C)C(=O)N[C@@H](CC(=O)O)C(=O)N[C@@H](CCC(N)=O)C(=O)N[C@@H](Cc1ccccc1)C(=O)N[C@@H](CC(N)=O)C(=O)N[C@@H](CO)C(=O)N[C@@H](CCCNC(=N)N)C(=O)N[C@@H](CCC(=O)O)C(=O)N[C@@H](C)C(=O)N[C@@H](CCCNC(=N)N)C(=O)N[C@@H](CCCNC(=N)N)C(=O)N[C@@H](CCCCN)C(=O)N[C@@H](C)C(=O)N[C@@H](CC(N)=O)C(=O)N[C@@H](CO)C(=O)N[C@@H](CCCCN)C(=O)N[C@@H](CO)C(=O)N[C@@H](CO)C(=O)N1CCC[C@H]1C(=O)N[C@@H](CO)C(=O)N1CCC[C@H]1C(=O)N[C@@H](CCCCN)C(=O)N[C@@H](CCCCN)C(=O)NCC(=O)N[C@@H](CCCCN)C(=O)N[C@@H](CCCCN)C(=O)N[C@@H](CCCNC(=N)N)C(=O)N[C@@H](CCCCN)C(=O)N[C@@H](CCCCN)C(=O)N[C@@H](CSC1CC(=O)N(c2ccc3c(c2)C(=O)OC32c3ccc(O)cc3Oc3cc(O)ccc32)C1=O)C(=O)NCC(=O)O` (some centres unmarked) [Fluorescein-BsPBP11-32] (H-GSMADQFNSREARRKANSKSSPSPKKGKKRKKC(Fluorescein(5-Mal))G-OH; N-terminus and C-terminus assumed): the “binding to BsGpsB1-68 (in words)” value in [5] (listed as BsPBP1_1-32 peptide labelled with fluorescein at position 31) was “the measured affinity was the same as if the fluorophore was at position 16”; in assay [5] (listed as peptide labelled at the C-terminus with fluorescein) it was “same affinity as a peptide labelled”. The “affinity of residue-31-labelled peptide (in words)” value in assay [6] was “same affinity”.
With `CSCC[C@H](NC(=O)[C@H](CO)NC(=O)CN)C(=O)N[C@@H](C)C(=O)N[C@@H](CC(=O)O)C(=O)N[C@@H](CCCCN)C(=O)N1CCC[C@H]1C(=O)N[C@@H](CCC(N)=O)C(=O)N[C@H](C(=O)N[C@@H](CCCNC(=N)N)C(=O)N[C@@H](CO)C(=O)N[C@@H](CCC(N)=O)C(=O)N[C@@H](Cc1ccc(O)cc1)C(=O)N[C@@H](CCCNC(=N)N)C(=O)N[C@@H](CC(N)=O)C(=O)N[C@@H](CCCCN)C(=O)N[C@@H](CCC(N)=O)C(=O)N[C@@H](CO)C(=O)NCC(=O)NCC(=O)N[C@@H](CSC1CC(=O)N(c2ccc3c(c2)C(=O)OC32c3ccc(O)cc3Oc3cc(O)ccc32)C1=O)C(=O)N[C@@H](CCCCN)C(=O)O)[C@@H](C)O` (some centres unmarked) [Fluorescein-LmPBPA11-20] (H-GSMADKPQTRSQYRNKQSGGC(Fluorescein(5-Mal))K-OH; N-terminus and C-terminus assumed), the “binding to BsGpsB1-68Lys32Glu (in words)” value in assay [7] is recorded as “almost identical”. The “binding to LmGpsB1-73 (in words)” value in assay [8] is “affinity similar to that of BsPBPA1_1-32 for BsGpsB1-68”.

B1: BsYpbE130-240^Ser132Cys: disulphide cross-linked dimeric form of BsYpbE130-240 (protein, UniProt P50731 130-240, looked up, variant S132C)
chain: EDCKPKEQTAADKKQTAVAEKEDSPNKEEATAAAASSSQSTVQQQEQPAEPVQNVPNRVVKHTVQKKETLYRISMKYYKSRTGEEKIRAYNHLNGNDVYTGQVLDIPLMDE
modifications: disulphide-linked dimer
On to B1, for which the binding to peptidoglycan entry in assay [9] was “enhanced considerably relative to the monomeric, cysteine-free version”.

B2: BsPBP1: B. subtilis class A PBP1 (protein)
chain: MSDQFNSREARRKANSKSSPSPKKGKKRKKGGLFKKTLFTLLILFVLGVVGGAVTFAVMVSDAPSLDESKLKTPYSSTIYDKNGKEIAEVGAEKRTYVSIDEIPDVVKEAFIATEDARFYEHHGIDPVRIGGALVANFKDGFGAEGGSTITQQVVKNSLLSHQKTLKRKVQEVWLSIQLERNYSKDEILEMYLNRIYFSPRAYGIGKAAEEFFGVTDLSKLTVEQAATLAGMPQSPTAYNPVKNPDKAEKRRNIVLSLMKKQGFISDSQYNKAKKVAVKDEGVVSQKEYEKASTNKYSAFVEEVMKEIDEKSDVDPSADGLKIYTTLDTKAQDKLDELMDGDTVGFTEGMQGGVTLLDTKNGEVRAIGAGRNQPVGGFNYATQTKAQPGSTIKPILDYGPVIENKKWSTYEQIDDSAYTYSNGKPIRDWDRKYLGPISMRYALAQSRNIPALKAFQAVGKDTAVDFANGLGLGLTKDNVTEAYSIGGFGGNDGVSPLTMAGAYSAFGNNGTYNEPHFVKSIEFNDGTKLDLTPKSKSAMSDYTAFMITDMLKTAVKTGTGQLAQVPGVEVAGKTGTTNFDDNEVKRYNIASGGARDSWFVGYTPQYTAAVWTGMGENEAGKKSLSAEEQKVAKRIFAQLIADVDDGSGSFEKPDSVVEATVEKGSNPAKLAGPNTPSDKKLTEYFVKGTAPSTVSKTYEKEEKEETAKLSGLNVKYDKDNQSLTLSWNYDGDATFAVKQSVDGGSYSEIQNSSAKEAVISGVQPGSVYKFEVTAVSDDGKSTASTSYEVPKAEDDEDKKDQQQTDDEKQDDEKTQDDTQTDDSQKDDGQTDQDQTDDSTNDQDKKQDNTNTNPSDNNNQDQSNDNDNDNSNNQDTSDGDSNSGKNDSTGSDTNKNKTDTSNKTQTNSSSIEKTN
modifications: left off: His6, end not stated, cleaved
notes: B. subtilis class A PBP1
As to B2, the “BACTH interaction with BsYrrS” value in assay [10] is “interacted”.

The values above are taken from PMC6335420, “The cell cycle regulator GpsB functions as cytosolic adaptor for multiple cell wall enzymes” (Nature Communications, 2019).
